Results on 9 compounds are retold here after US4539149A, “β-Lactam antibacterial agents” (Beecham Group p.l.c., priority 1981, dated 1985).

The test system of one data set is E. coli 96 R+. The data set is described as follows: in vivo test in mice against experimental infection, E. coli 96 R+. To be noted: Escherichia coli, sc, mice (5 mice/group), s.c., dosed at 1 and 5 hours after infection, read-out: Total s.c. CD50. The method, then: (§1) The compound of Example 5 was tested in vivo in mice against experimental infections.
(§2) Organism Total* s.c. CD50 (Mg/Kg)
(§3) *dosed at 1 and 5 hours after infection

Data set [1] can be described thus: blood concentration in mice after subcutaneous administration. The data set is classed as in vivo. The settings on record: mouse, sc, mice (5), 50 mg/kg. The method, then: The compound of Example 5 was administered to mice (5) by the subcutaneous route at a dosage of 50 mg/kg and the blood concentration determined.
The subject of another data set is E. coli 96 R-. The data set is described as follows: in vivo test in mice against experimental infection, E. coli 96 R-. To be noted: Escherichia coli, sc, mice (5 mice/group), s.c., dosed at 1 and 5 hours after infection, read-out: Total s.c. CD50. The method, then: as §1, §2, §3
A further data set has as its system P. mirabilis 889. Kind of data set: MIC against P. mirabilis 889. To be noted: for MIC: Proteus mirabilis, 889, P. mirabilis 889. Type of data set: cell-based.
The next data set relates to K. aerogenes T767. The data set is described as follows: in vivo test in mice against experimental infection, K. aerogenes T767. To be noted: Klebsiella aerogenes, sc, mice (5 mice/group), s.c., dosed at 1 and 5 hours after infection, read-out: Total s.c. CD50. The method, then:
as §1, §2, §3

One may read the AUC as the area under the concentration-time curve, a measure of exposure. A lower AUC goes with less exposure. As usually defined, the MIC is the least concentration at which growth counts as inhibited. A low value points to a more susceptible organism.

≈ marks a conversion by molar mass, not a printed value. Counter-ions that a name gives are not always drawn.

With `CCN1CCN(C(=O)N[C@@H](C(=O)N[C@]2(NC=O)C(=O)N3[C@@H](C(=O)O)C(C)(C)S[C@@H]32)c2ccc(O)cc2)C(=O)C1=O` [Example 5, 6α-Formamido-6β-[D-2-[(4-ethyl-2,3-dioxopiperazin-1-yl)carbonylamino]-2-(4-hydroxyphenyl)acetamido]penicillanic acid, sodium salt], the ED50 in the data set with E. coli 96 R+ is 5.2 mg/kg; in the data set with E. coli 96 R- it was less than 3.1 mg/kg; in the data set on K. aerogenes T767, 3.7 mg/kg. Also, the AUC in data set [1] was 11000 ng·h/mL. The concentration at 5 min in data set [1] (5 mins) is 24400 ng/mL. Besides, the concentration at 10 min in data set [1] (10 mins) stood at 23200 ng/mL. In data set [1] (20 mins), the concentration at 20 min was determined as 14500 ng/mL. In data set [1] (30 mins), this compound displayed a concentration at 0.5 h of 11000 ng/mL. This compound also registered a concentration at 1 h in data set [1] (60 mins) of less than 900 ng/mL. The compound further came in with a concentration at 2 h in data set [1] (120 mins) of less than 900 ng/mL. The compound also registered an MIC with P. mirabilis 889 of 0.1 µg/mL.
As to `Cn1nnnc1SCC1=C(C(=O)O)N2C(=O)[C@@](NC=O)(NC(=O)Cc3cccs3)[C@H]2SC1` [Example 53, 7α-Formamido-7β-[2-(thien-2-yl)acetamido]-3-[(1-methyl-1H-tetrazol-5-yl)thiomethyl]ceph-3-em-4-carboxylic acid, sodium salt], in the data set on P. mirabilis 889, the lowest concentration to inhibit growth (MIC) was 10 µg/mL.
Consider `Cc1nnc(SCC2=C(C(=O)O)N3C(=O)[C@@](NC=O)(NC(=O)Cc4cccs4)[C@H]3SC2)s1` [Example 56, 7α-Formamido-7β-[2-(thien-2-yl)acetamido]-3-[(2-methyl-1,3,4-thiadiazol-5-yl)thiomethyl]ceph-3-em-4-carboxylate acid, sodium salt], for which the MIC in the data set with P. mirabilis 889 is 25 µg/mL.
Same read-out and setting: to `CCN1CCN(C(=O)N[C@H](C(=O)N[C@]2(NC=O)C(=O)N3[C@@H](C(=O)O)C(C)(C)S[C@@H]32)c2ccc(O)c(O)c2)C(=O)C1=O` [Example 58, 6β-[L-2-[(4-ethyl-2,3-dioxopiperazin-1-yl)carbonyllamino]-2-(3,4-dihydroxyphenyl)acetamido]-6α-formamidopenicillanic acid, sodium salt] belongs 100 µg/mL; to `O=CN[C@@]1(NC(=O)Cc2cccs2)C(=O)N2C(C(=O)[O-])=C(C[n+]3ccccc3)CS[C@@H]21` [Example 60, 7α-Formamido-3-(pyridiniummethyl)-7β-(thien-2-ylacetamido)-ceph-3-em-4-carboxylate], 50 µg/mL (≈ 109 µM).
The same measure, in the same setting: next, `CC(=O)Oc1ccc([C@@H](N)C(=O)N[C@]2(NC=O)C(=O)N3[C@@H](C(=O)O)C(C)(C)S[C@@H]32)cc1OC(C)=O` [Example 64, 6β-[D-2-Amino-2-(3,4-diacetoxyphenyl)acetamido]-6α-formamido penicillanic acid]: 100 µg/mL (≈ 197 µM).
The same measure, in the same setting: next, `CC(=O)OCC1=C(C(=O)O)N2C(=O)[C@@](NC=O)(NC(=O)/C(=N\OC(C)(C)C(=O)O)c3csc(N)n3)[C@H]2SC1` [Example 67, 7β-[(Z)-2-(2-Aminothiazol-4-yl)-2-(1-carboxy-1-methylethoxyimino)acetamido]-7α-formamidocephalosporanic acid disodium salt]: 30 µg/mL.
Consider `CCN1CCN(C(=O)NC(C(=O)NC2(NC=O)C(=O)N3C(C(=O)[O-])=C(CSc4nnc(C)s4)CSC32)c2ccc(OC(C)=O)c(OC(C)=O)c2)C(=O)C1=O.[Na+]` (stereo not drawn) [Example 68, 7β-[2-(3,4-Diacetoxyphenyl)-2-[(4-ethyl-2,3-dioxopiperazin-1-yl)carbonylamino]acetamido]-7α-formamido-3-[(2-methyl-1,3,4-thiadiazol-5-yl)thiomethyl]ceph-3-em-4-carboxylic acid, sodium salt], for which the “MIC against P. mirabilis 889” value against P. mirabilis 889 (P. mirabilis 889) was 0.1 µg/mL.
As for `CCN1CCN(C(=O)N[C@@H](C(=O)N[C@]2(NC=O)C(=O)N3C(C(=O)O)=C(COC(C)=O)CS[C@@H]32)c2ccc(O)c(O)c2)C(=O)C1=O` [Example 69, 7β-[D-2-[(4-Ethyl-2,3-dioxopiperazin-1-yl)carbonylamino]-2-(3,4-dihydroxyphenyl)acetamido]-7α-formamidocephalosporanic acid, sodium salt], in the data set with P. mirabilis 889, it took 0.1 µg/mL to inhibit growth (MIC).
